Results as given in paper PMC9328652, “A novel class of fast‐acting antimalarial agents: Substituted 15‐membered azalides” (British Journal of Pharmacology, 2020).
Read-outs that look alike come from different tables or passages of the source.

Assays:
[1] = system: Plasmodium falciparum 3D7A (sensitive); set-up: method as in Pesic et al. ([2012]); settings: 72 h of incubation; ref Pesic et al. ([2012]); cited from earlier work
human erythrocytes = experiment: Accumulation and retention in human erythrocytes; type: in vitro ADME; settings: after washout
Procedure: The human biological samples were sourced ethically, and their research use was in accord with the terms of the informed consents under an IRB/EC approved protocol. Human erythrocytes were isolated from fresh whole blood. Blood cells were removed from the plasma by centrifugation at 1,650 g and 4°C for 15 min. The pellet was re‐suspended in saline and centrifuged at 3,000 g and at room temperature for 10 min. Supernatant and the upper part of pellet containing leukocytes were discarded. The procedure was repeated three to four times until there were no traces of leukocytes. The quality of erythrocyte isolation was determined on Sysmex SF‐3000 haematological analyser. To measure compound accumulation in cells, erythrocytes (2 × 10^9) were re‐suspended in 3‐ml RPMI 1640 (Gibco, Invitrogen) medium containing 20 μM of tested compounds and incubated at 37°C for 3 or 24 h. Cells were subsequently washed twice in ice‐cold PBS (Sigma) followed by centrifugation at 3,000 g and 4°C for 10 min. The cells were lysed by freezing in 0.5% Triton X‐100 (Sigma) in deionized water. […] Concentrations in lysates were determined by LC–MS/MS. […] To determine intracellular concentration, measured concentration in lysates was normalized to the volume of erythrocyte pellet in samples.

[2] = system: Plasmodium falciparum W2 (chloroquine/pyrimethamine resistant); set-up: method as in Pesic et al. ([2012]); settings: 72 h of incubation; ref Pesic et al. ([2012]); cited from earlier work
[3] = system: normal human bronchial epithelium (NHBE); experiment: Accumulation and retention in human primary cells, NHBE; type: in vitro ADME; settings: mean (SD)
Procedure: (§1) Accumulation and retention in human primary cells was determined as described in detail previously (Stepanic et al., [2011]). Briefly, normal human bronchial epithelial cells (NHBE, CC‐2541, Lonza), normal human lung fibroblasts (NHLF, CC‐2512, Lonza), and bronchial smooth muscle cells (BSMC, CC‐2576, Lonza) were cultivated according to the protocols of the suppliers. Human polymorphonuclear cells (PMN) and monocytes from healthy volunteers were isolated from buffy coats. Monocytes were isolated by negative selection on magnetic separator. Monocyte‐derived macrophages (MDM) were obtained by cultivating monocytes with 5 ng·ml^−1 rhGMCSF for 10 days. To determine compound accumulation cells were incubated with 3–10 μM of compounds in their corresponding culture medium for 3 h at 37°C in 5% CO2, washed, and lysed. To measure cellular retention of compounds, after being washed, drug‐loaded cells were incubated in fresh medium for 3 h, washed, and lysed. Compound concentrations were determined by HPLC–MS/MS analysis and expressed as % of azithromycin measurements.

[4] = system: Plasmodium falciparum W2 (chloroquine/pyrimethamine resistant); experiment: [3H]hypoxanthine incorporation antimalarial assay, strain W2; type: cell-based; settings: W2, 72 h, read-out: Plasmodium falciparum IC50 W2
Procedure: (§2) The activity of the test compounds against P. falciparum in vitro was determined using the tritiated hypoxanthine incorporation assay of Desjardins et al. and additionally modified by Milhous and Chulay (Chulay, Haynes, & Diggs, [1983]; Milhous, Weatherly, Bowdre, & Desjardins, [1985]).
(§3) Compounds were dissolved in DMSO and subsequently diluted in the culture medium (RPMI 1640) supplemented with 10% v/v human plasma. Serial 1:2 drug dilutions were prepared in triplicate in microtitre plates. Culture medium supplemented with 10% v/v human plasma and type A Rhesus positive human erythrocytes infected with P. falciparum strains was added to yield a haematocrit of 3% and a parasitaemia of 0.25–0.55%. The plates were incubated at 37°C in a modular incubator flushed with a mixture of 5% oxygen, 3% carbon dioxide, and 92% nitrogen for 48 h, and then [^3H]hypoxanthine was added to give a final concentration of 12.5–16 μCi·ml^−1. After incubation for additional 24 h, particulate matter was harvested on fibreglass strips and hypoxanthine incorporation determined by scintillation spectrophotometry. […] Delayed death experiments were performed by this standard method but extending the incubation time with the drug up to 96 h.

[5] = system: monocyte derived macrophages (MDM); experiment: Accumulation and retention in human primary cells, MDM; type: in vitro ADME; settings: mean (SD)
Procedure: as §1

[6] = system: Polymorphonuclear leukocytes (PMN); experiment: Accumulation and retention in human primary cells, PMN; type: in vitro ADME; settings: mean (SD)
Procedure: as §1

[7] = system: normal human lung fibroblasts (NHLF); experiment: Accumulation and retention in human primary cells, NHLF; type: in vitro ADME; settings: mean (SD)
Procedure: as §1

[8] = system: bronchial smooth muscle cells (BSMC); experiment: Accumulation and retention in human primary cells, BSMC; type: in vitro ADME; settings: mean (SD)
Procedure: as §1

[9] = system: Plasmodium falciparum 3D7A (sensitive); experiment: [3H]hypoxanthine incorporation antimalarial assay, strain 3D7A; type: cell-based; settings: 72 h of incubation, N = 3
Procedure: as §2, §3

Compound | IC50 [1] [µM] | initially accumulated amount retained in the erythrocytes (human erythrocytes) [%] | IC50 [2] [nM] | accumulation ([3]; 3 h) | retention ([3]; 3 h in fresh medium) | IC50 [4] [nM] | accumulation ([5]; 3 h) | retention ([5]; 3 h in fresh medium) | accumulation ([6]; 3 h) | retention ([6]; 3 h in fresh medium) | accumulation ([7]; 3 h) | retention ([7]; 3 h in fresh medium) | accumulation ([8]; 3 h) | retention ([8]; 3 h in fresh medium) | IC50 [9] [nM]
CC[C@H]1OC(=O)[C@H](C)[C@@H](O[C@H]2C[C@@](C)(OC)[C@@H](O)[C@H](C)O2)[C@H](C)[C@@H](O[C@@H]2O[C@H](C)C[C@H](N(C)C)[C@H]2O)[C@](C)(O)C[C@@H](C)CN(C)[C@H](C)[C@@H](O)[C@]1(C)O [Azithromycin, reference compound] | 11.5 | 10 | 2680 | – | – | – | – | – | – | – | – | – | – | – | –
CC[C@H]1OC(=O)[C@H](C)[C@@H](O[C@H]2C[C@@](C)(OC)[C@@H](O)[C@H](C)O2)[C@H](C)[C@@H](O[C@@H]2O[C@H](C)C[C@H](N(C)C)[C@H]2O)[C@](C)(O)C[C@@H](C)CN(CCCNc2ccnc3cc(Cl)ccc23)[C@H](C)[C@@H](O)[C@]1(C)O [Compound 1] | – | – | – | 162 (3) % azithromycin | 123 (11) % azithromycin | 27 | 118 (21) % azithromycin | 94 (0) % azithromycin | 127 (36) % azithromycin | 101 (19) % azithromycin | 100 (11) % azithromycin | 85 (3) % azithromycin | 148 (77) % azithromycin | 118 (19) % azithromycin | 20
CC[C@H]1OC(=O)[C@H](C)[C@@H](O)[C@H](C)[C@@H](O[C@@H]2O[C@H](C)C[C@H](N(C)C)[C@H]2OCCCNc2ccnc3ccccc23)[C@](C)(O)C[C@@H](C)CN[C@H](C)[C@@H](O)[C@]1(C)O [Compound 3] | – | – | – | – | – | 27 | – | – | – | – | – | – | – | – | 20
